# Assay results as given in publication PMC9696974 (Pharmaceutics, 2022).
# Experiments:
# A549 cells [1] = test: Cell size (FSC) and complexity (SSC) by flow cytometry; format: cell-based, human; conditions: A549, 10 µM, UV irradiation
# Experimental: To corroborate further the observed phenomena, we determined morphology changes in 2M-, 1-, and 1M-treated A549 cells after exposing them to UV light. Morphology changes were determined by flow cytometry, which allows the assessment of cell size (FSC) and complexity (SSC). […] This increase was the most pronounced in cells treated with 1 and 1M.
# pUC19 plasmid DNA = test: Plasmid electrophoresis, photoinduced DNA nuclease activity; format: biochemical; conditions: 100 μM compound; for Photo-induced nuclease activity on plasmid DNA: 1 μg pUC19, UV light 15 and 45 s; for Effect on plasmid DNA forms without UV irradiation: 1 μg pUC19, non-irradiated
# Experimental: Plasmid electrophoresis. For assessing the photoinduced DNA nuclease activity of compounds 2M, 1 and 1M, 1 μg of pUC19 plasmid DNA (2686 pb) was incubated with a 100 μM solution of the respective compound, and exposed to UV light (using a xenon arc lamp, Oriel, Stratford, CT, USA) for 15 and 45 s. After the treatment plasmid samples were run on 0.5% agarose gel, and stained with Midori Green DNA binding dye (Nippon Genetics, Düren, Germany). Non-irradiated samples containing compounds and plasmid DNA served as a control for assessing the photoinduced nuclease activity of the compound. Plasmid without the compound was irradiated with UV light under the same conditions to determine whether UV light itself induces changes in plasmid DNA forms (linear and supercoiled form). After gel electrophoresis, plasmid DNA forms were visualised on a UVITEC Imager (Cleaver Scientific, Rugby, UK).
# ct-DNA = test: Fluorimetric titration with ct-DNA, Scatchard equation; format: binding, calf; parameters: key: The changes were too small to allow an accurate calculation of the binding constant; conditions: I = 0.05 M
# Experimental: (§1) Experiments were conducted in an aqueous buffer solution (pH = 7.0 or pH= 5.0, I = 0.05 M, sodium cacodylate buffer). For the UV-Vis spectra were used Varian Cary 100 Bio spectrometer, for fluorescence spectra we used the Varian Cary Eclipse fluorimeter and for CD spectra we used the JASCO J815 spectropolarimeter, all conducted at 25.0 °C using appropriate quartz cuvettes (path length: 1 cm).
# Polynucleotides were purchased as noted: poly dAdT-poly dAdT, poly dGdC-poly dGdC, poly A-poly U (ds-RNA), (Sigma-Aldrich, Schnelldorf, Germany), calf thymus (ct)-DNA (Sigma-Aldrich, Schnelldorf, Germany) and dissolved in sodium cacodylate buffer, I = 0.05 M, pH = 7.0. The ct-DNA was sonicated and filtered through a 0.45 µm filter to obtain mostly short (ca. 100 base pairs) rod-like B-helical DNA fragments. The concentration of DNA or RNA was determined spectroscopically as the c(nucleobase) using producer-provided molar extinction coefficients.
# Fortunately, strong emission from the compounds studied allowed fluorimetric titrations to be performed at much lower concentrations of the dyes (c = 5 × 10^−8 M), thus preventing precipitation of non-methylated 1 or 2, and allowing for the collection of numerous data points at excess of DNA/RNA binding sites over c(dye). […] Intriguingly, mixed sequence ct-DNA caused emission quenching of 1M at an excess of dye over ct-DNA (r > 0.1), and such quenching could be attributed to aggregation of 1M along DNA, while at an excess of ct-DNA over dye (r << 0.1), emission increased. The emission of 2M was indiscriminately quenched by all ds-DNA/RNA (Figure 2d).
# (§2) Processing of fluorimetric titrations by means of the Scatchard equation [56, 57] yielded binding constants (Table 2). […] Affinities of 1 and 2 toward BSA were the same at both pH values, supporting the conclusion that neutral forms of 1 and 2 were bound.
# A549 cells [2] = test: Detection of total ROS (DCF, flow cytometry); format: cell-based, human; conditions: A549, 10 µM
# Experimental: Detection of total ROS. For detecting total ROS, A549 cells were seeded in 12-well tissue culture plates and 24 h after were treated with a 10 μM working solution of the respective compound and incubated for 90 min (37 °C, 5% CO2), allowing the compound to enter to cells. The same dilution of DMSO served as a control, while H2O2 (0.002%) was used as a positive control. One plate was irradiated with UV light (350 nm) for 5 min, and was analysed immediately after UV exposure. The plate that was not irradiated with UV light served as the control, and was incubated in the cell incubator (37°C, 5% CO2) during the whole experiment. Subsequently, cells were washed with PBS, trypsinised, resuspended with cold PBS supplemented with 10% FBS and centrifuged for 5 min (RT, 1100 g). Cell pellets were resuspended and washed again, but this time with cold PBS supplemented with 1% FBS and centrifuged for 5 min (RT, 1100 g). After the second washing, cell pellets were resuspended in 5 μM 2′,7′–dichloro-fluorescin diacetate (H2DCFDA, Sigma, USA) which is converted to dichlorofluorescein (DCF) in contact with ROS. Unstained cells were resuspended in PBS supplemented with 1% FBS. Cells were then analysed by flow cytometry using FACSCalibur (BD Biosciences, San Jose, CA, USA).
# BSA = BSA (Bos taurus, UniProt P02769); test: Fluorimetric titration with BSA, Scatchard equation; format: binding, bovine; conditions: I = 0.05 M; for Kd: pH 7, sodium cacodylate buffer, read-out: Binding constant logKs BSA (converted)
# Experimental: as §1
# As the pharmacokinetic properties of small molecules often depend on a binding affinity toward transport proteins (such as serum albumin), we performed fluorimetric titrations with BSA. The emission of both 1M and 2M (Supplementary Information, Figures S15 and S16), was strongly quenched, with compound 2M showing a lower affinity in comparison to ds-DNA/RNA, while the affinity of 1M was similar to that towards ds-DNA/RNA (Table 2).
# as §2
# BSA, sequence (P02769 25-607): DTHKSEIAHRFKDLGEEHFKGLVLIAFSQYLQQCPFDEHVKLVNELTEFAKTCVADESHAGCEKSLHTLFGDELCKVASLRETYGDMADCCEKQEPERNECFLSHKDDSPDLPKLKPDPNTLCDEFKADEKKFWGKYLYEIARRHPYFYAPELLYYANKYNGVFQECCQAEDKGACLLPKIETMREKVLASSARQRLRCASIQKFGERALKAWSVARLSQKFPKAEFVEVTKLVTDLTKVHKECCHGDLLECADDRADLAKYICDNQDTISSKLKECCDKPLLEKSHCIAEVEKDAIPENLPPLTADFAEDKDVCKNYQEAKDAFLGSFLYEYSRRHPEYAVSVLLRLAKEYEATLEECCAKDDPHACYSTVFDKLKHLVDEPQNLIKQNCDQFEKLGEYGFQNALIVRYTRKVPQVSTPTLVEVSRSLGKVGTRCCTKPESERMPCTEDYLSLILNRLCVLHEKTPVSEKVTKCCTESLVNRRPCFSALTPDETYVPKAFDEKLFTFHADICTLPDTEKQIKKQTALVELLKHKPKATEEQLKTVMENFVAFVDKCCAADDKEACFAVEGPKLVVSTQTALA
Structure (SMILES),Cell size (FSC) (A549 cells [1]),Photo-induced nuclease activity on plasmid DNA (pUC19 plasmid DNA),Effect on plasmid DNA forms without UV irradiation (pUC19 plasmid DNA),"Binding constant logKs ct-DNA (ct-DNA; pH 7, sodium cacodylate buffer)",Intracellular ROS production (A549 cells [2]; UV light 350 nm 5 min),Intracellular ROS production (A549 cells [2]; kept in dark),Kd (BSA),"Binding constant logKs ct-DNA (ct-DNA; pH 5, sodium cacodylate buffer)","Binding constant logKs BSA (BSA; pH 5, sodium cacodylate buffer)"
"C[n+]1ccc(-c2cc3ccc4cccc5ccc(c2)c3c45)cc1 [1M, 2-para-N-methylpyridinium pyrene]",increase in cell size,strong photo-induced nuclease activity,nicking of the plasmid DNA,5.5,immediate and strong increase in ROS production,induced the production of intracellular ROS,3.98 µM,,
C[n+]1ccc(-c2cc3ccc4cc(-c5cc[n+](C)cc5)cc5ccc(c2)c3c45)cc1 [2M],increase in cell size,strong photo-induced nuclease activity,unwinding of supercoiled DNA even without UV irradiation,8.8,immediate and strong increase in ROS production,,0.126 µM,,
c1cc2ccc3cc(-c4ccncc4)cc4ccc(c1)c2c34 [compound 1],increase in cell size,did not show any influence on DNA plasmid forms,,b,immediate and strong increase in ROS production,,3.16 µM,5.3,5.5
